Test results: ChEMBL document CHEMBL1159262, “Bioactive diterpenoids from Octocorallia, 2. Deoxyxeniolide B, a novel ichthyotoxic diterpenoid from the soft coral Xenia elongata” (J Nat Prod, 1995)

Test system: Oryzias latipes
Experiment: Ichthyotoxicity against Oryzias latipes after 1 hr
Format: organism-based
Conditions: in vivo

Row | Compound | Activity | LC100
1 | C=C1CC[C@@H]2O[C@@]2(C)CC[C@@H]2/C(=C\C=C\C(C)(C)O)COC(=O)[C@@H]12 | Non-toxic | –
2 | C=C1CC[C@@H]2O[C@@]2(C)CC[C@@H]2/C(=C\CC=C(C)C)COC(=O)[C@@H]12 | Non-toxic | –
3 | C=C1CC/C=C(\C)CC[C@@H]2/C(=C\CC=C(C)C)COC(=O)[C@@H]12 [DEOXYXENIOLIDE B] | – | 15 ppm
